{"source": "patent US20260285850A1", "about": "“SUBSTITUTED OXAZOLIDINONES AND IMIDAZOLINONES AS HERBICIDES” (FMC CORPORATION, priority 2023, published 2026)", "type_in_all_cases": "in vivo", "key": {"[1]": {"test_system": "rice (Oryza sativa)", "assay": "Test B flooded paddy test, visual plant response rating 0-100", "conditions": "250 g ai/ha, Flood, applied to paddy water, evaluated after 13 days", "experimental": "(§1) Plant species in the flooded paddy test selected from barnyardgrass (Echinochloa crusgalli), ducksalad (Heteranthera limosa), rice (Oryza sativa), and sedge, umbrella (small-flower umbrella sedge, Cyperus difformis) were grown to the 2-leaf stage for testing. At time of treatment, test pots were flooded to 3 cm above the soil surface, treated by application of test compounds directly to the paddy water, and then maintained at that water depth for the duration of the test. Treated plants and controls were maintained in a greenhouse for 13 days, after which time all species were compared to controls and visually evaluated. […] A dash (-) response means no test result."}, "[2]": {"test_system": "barnyardgrass (Echinochloa crusgalli)", "assay": "Test B flooded paddy test, visual plant response rating 0-100", "conditions": "250 g ai/ha, Flood, applied to paddy water, evaluated after 13 days", "experimental": "as §1"}, "[3]": {"test_system": "ducksalad (Heteranthera limosa)", "assay": "Test B flooded paddy test, visual plant response rating 0-100", "conditions": "250 g ai/ha, Flood, applied to paddy water, evaluated after 13 days", "experimental": "as §1"}, "[4]": {"test_system": "sedge, umbrella (small-flower umbrella sedge, Cyperus difformis)", "assay": "Test B flooded paddy test, visual plant response rating 0-100", "conditions": "250 g ai/ha, Flood, applied to paddy water, evaluated after 13 days", "experimental": "as §1"}, "[5]": {"test_system": "blackgrass (Alopecurus myosuroides)", "assay": "Test A postemergence application, visual injury rating 0-100", "source_text": "(§2) Seeds of plant species selected from barnyardgrass (Echinochloa crus-galli), blackgrass (Alopecurus myosuroides), corn (Zea mays), foxtail, giant (giant foxtail, Setaria faberi), green foxtail (Setaria viridis), goosegrass (Eleusine indica), kochia (Bassia scoparia), oat, wild (wild oat, Avena fatua), palmer (palmer amaranth, palmer pigweed, Amaranthus palmeri), ragweed (common ragweed, Ambrosia artemisiifolia), ryegrass, Italian (italian ryegrass, Lolium multiflorum), soybean (Glycine max) and wheat (Triticum aestivum) were planted into a blend of loam soil and sand and treated preemergence with a directed soil spray using test chemicals formulated in a non-phytotoxic solvent mixture which included a surfactant.\n(§3) At the same time, plants selected from these crops and weed species and also galium (catchweed bedstraw, Galium aparine) and horseweed (Erigeron canadensis) were planted in pots containing the same blend of loam soil and sand and treated with postemergence applications of test chemicals formulated in the same manner. Plants ranged in height from 2 to 10 cm and were in the one- to two-leaf stage for the postemergence treatment. Treated plants and untreated controls were maintained in a greenhouse for 10 days, after which time all treated plants were compared to untreated controls and visually evaluated for injury. Plant response ratings, summarized in Table A, are based on a 0 to 100 scale where 0 is no effect and 100 is complete control. A dash (-) response means no test result."}, "[6]": {"test_system": "green foxtail (Setaria viridis)", "assay": "Test A postemergence application, visual injury rating 0-100", "source_text": "as §2, §3"}, "[7]": {"test_system": "corn (Zea mays)", "assay": "Test A postemergence application, visual injury rating 0-100", "source_text": "as §2, §3"}, "[8]": {"test_system": "ryegrass, Italian (italian ryegrass, Lolium multiflorum)", "assay": "Test A postemergence application, visual injury rating 0-100", "source_text": "as §2, §3"}, "[9]": {"test_system": "soybean (Glycine max)", "assay": "Test A postemergence application, visual injury rating 0-100", "source_text": "as §2, §3"}, "[10]": {"test_system": "palmer (palmer amaranth, palmer pigweed, Amaranthus palmeri)", "assay": "Test A postemergence application, visual injury rating 0-100", "source_text": "as §2, §3"}, "[11]": {"test_system": "wheat (Triticum aestivum)", "assay": "Test A postemergence application, visual injury rating 0-100", "source_text": "as §2, §3"}, "[12]": {"test_system": "ragweed (common ragweed, Ambrosia artemisiifolia)", "assay": "Test A postemergence application, visual injury rating 0-100", "source_text": "as §2, §3"}, "[13]": {"test_system": "barnyardgrass (Echinochloa crus-galli)", "assay": "Test A postemergence application, visual injury rating 0-100", "source_text": "as §2, §3"}, "[14]": {"test_system": "kochia (Bassia scoparia)", "assay": "Test A postemergence application, visual injury rating 0-100", "source_text": "as §2, §3"}, "[15]": {"test_system": "oat, wild (wild oat, Avena fatua)", "assay": "Test A postemergence application, visual injury rating 0-100", "source_text": "as §2, §3"}, "[16]": {"test_system": "blackgrass (Alopecurus myosuroides)", "assay": "Test A preemergence soil spray, visual injury rating 0-100", "conditions": "10 days", "source_text": "as §2, §3"}, "[17]": {"test_system": "green foxtail (Setaria viridis)", "assay": "Test A preemergence soil spray, visual injury rating 0-100", "conditions": "10 days", "source_text": "as §2, §3"}, "[18]": {"test_system": "corn (Zea mays)", "assay": "Test A preemergence soil spray, visual injury rating 0-100", "conditions": "10 days", "source_text": "as §2, §3"}, "[19]": {"test_system": "ryegrass, Italian (italian ryegrass, Lolium multiflorum)", "assay": "Test A preemergence soil spray, visual injury rating 0-100", "conditions": "10 days", "source_text": "as §2, §3"}, "[20]": {"test_system": "soybean (Glycine max)", "assay": "Test A preemergence soil spray, visual injury rating 0-100", "conditions": "10 days", "source_text": "as §2, §3"}, "[21]": {"test_system": "palmer (palmer amaranth, palmer pigweed, Amaranthus palmeri)", "assay": "Test A preemergence soil spray, visual injury rating 0-100", "conditions": "16 g ai/ha, 0 to 100 scale, 10 days", "source_text": "as §2, §3"}, "[22]": {"test_system": "wheat (Triticum aestivum)", "assay": "Test A preemergence soil spray, visual injury rating 0-100", "conditions": "10 days", "source_text": "as §2, §3"}, "[23]": {"test_system": "ragweed (common ragweed, Ambrosia artemisiifolia)", "assay": "Test A preemergence soil spray, visual injury rating 0-100", "conditions": "10 days", "source_text": "as §2, §3"}, "[24]": {"test_system": "barnyardgrass (Echinochloa crus-galli)", "assay": "Test A preemergence soil spray, visual injury rating 0-100", "conditions": "10 days", "source_text": "as §2, §3"}, "[25]": {"test_system": "kochia (Bassia scoparia)", "assay": "Test A preemergence soil spray, visual injury rating 0-100", "conditions": "10 days", "source_text": "as §2, §3"}, "[26]": {"test_system": "oat, wild (wild oat, Avena fatua)", "assay": "Test A preemergence soil spray, visual injury rating 0-100", "conditions": "10 days", "source_text": "as §2, §3"}, "[27]": {"conditions": "62 g ai/ha, postemergence, 10 days, 0 = no effect, 100 = complete control"}, "[28]": {"conditions": "Postemergence, 16 g ai/ha, greenhouse 10 days, 0 no effect, 100 complete control"}, "[29]": {"conditions": "62 g ai/ha, 0 = no effect, 100 = complete control"}}}
{"smiles": "CCOC(=O)C1=CCC(NC(=O)C2(C)CN(c3cc(F)cc(F)c3)C(=O)O2)C1", "note": "(centres unmarked) [Compound 111]", "values": [{"measurement": "Plant response rating, Rice (0 to 100 scale, 0 is no effect and 100 is complete control)", "setting": "[1]", "value": 0}, {"measurement": "Plant response rating, Barnyardgrass (0 to 100 scale, 0 is no effect and 100 is complete control)", "setting": "[2]", "value": 0}, {"measurement": "Plant response rating, Ducksalad (0 to 100 scale, 0 is no effect and 100 is complete control)", "setting": "[3]", "value": 0}, {"measurement": "Plant response rating, Sedge, Umbrella (0 to 100 scale, 0 is no effect and 100 is complete control)", "setting": "[4]", "value": 0}, {"measurement": "Blackgrass plant response rating (0-100)", "setting": "[5]; [27]", "value": 0}, {"measurement": "Blackgrass plant response rating (0 to 100 scale)", "setting": "[5]; [28]", "value": 0}, {"measurement": "Foxtail, Green plant response rating (0-100)", "setting": "[6]; [27]", "value": 0}, {"measurement": "Foxtail, Green plant response rating (0 to 100 scale)", "setting": "[6]; [28]", "value": 0}, {"measurement": "Corn plant response rating (0-100)", "setting": "[7]; [27]", "value": 0}, {"measurement": "Corn plant response rating (0 to 100 scale)", "setting": "[7]; [28]", "value": 0}, {"measurement": "Ryegrass, Italian plant response rating (0-100)", "setting": "[8]; [27]", "value": 0}, {"measurement": "Ryegrass, Italian plant response rating (0 to 100 scale)", "setting": "[8]; [28]", "value": 0}, {"measurement": "Soybean plant response rating (0-100)", "setting": "[9]; [27]", "value": 0}, {"measurement": "Soybean plant response rating (0 to 100 scale)", "setting": "[9]; [28]", "value": 0}, {"measurement": "Pigweed, Palmer plant response rating (0-100)", "setting": "[10]; [27]", "value": 10}, {"measurement": "Pigweed, Palmer plant response rating (0 to 100 scale)", "setting": "[10]; [28]", "value": 0}, {"measurement": "Wheat plant response rating (0-100)", "setting": "[11]; [27]", "value": 20}, {"measurement": "Wheat plant response rating (0 to 100 scale)", "setting": "[11]; [28]", "value": 0}, {"measurement": "Ragweed plant response rating (0-100)", "setting": "[12]; [27]", "value": 0}, {"measurement": "Ragweed plant response rating (0 to 100 scale)", "setting": "[12]; [28]", "value": 0}, {"measurement": "Barnyardgrass plant response rating (0-100)", "setting": "[13]; [27]", "value": 20}, {"measurement": "Barnyardgrass plant response rating (0 to 100 scale)", "setting": "[13]; [28]", "value": 0}, {"measurement": "Kochia plant response rating (0-100)", "setting": "[14]; [27]", "value": 0}, {"measurement": "Kochia plant response rating (0 to 100 scale)", "setting": "[14]; [28]", "value": 0}, {"measurement": "Oat, Wild plant response rating (0-100)", "setting": "[15]; [27]", "value": 0}, {"measurement": "Oat, Wild plant response rating (0 to 100 scale)", "setting": "[15]; [28]", "value": 0}, {"measurement": "Blackgrass plant response rating", "setting": "[16]; 16 g ai/ha, 0 to 100 scale", "value": 0}, {"measurement": "Blackgrass plant response rating (0-100)", "setting": "[16]; [29]", "value": 0}, {"measurement": "Foxtail, Green plant response rating", "setting": "[17]; 16 g ai/ha, 0 to 100 scale", "value": 0}, {"measurement": "Foxtail, Green plant response rating (0-100)", "setting": "[17]; [29]", "value": 0}, {"measurement": "Corn plant response rating", "setting": "[18]; 16 g ai/ha, 0 to 100 scale", "value": 0}, {"measurement": "Corn plant response rating (0-100)", "setting": "[18]; [29]", "value": 0}, {"measurement": "Ryegrass, Italian plant response rating", "setting": "[19]; 16 g ai/ha, 0 to 100 scale", "value": 0}, {"measurement": "Ryegrass, Italian plant response rating (0-100)", "setting": "[19]; [29]", "value": 0}, {"measurement": "Soybean plant response rating", "setting": "[20]; 16 g ai/ha, 0 to 100 scale", "value": 100}, {"measurement": "Soybean plant response rating (0-100)", "setting": "[20]; [29]", "value": 0}, {"measurement": "Pigweed, Palmer plant response rating", "setting": "[21]", "value": 0}, {"measurement": "Wheat plant response rating", "setting": "[22]; 16 g ai/ha, 0 to 100 scale", "value": 0}, {"measurement": "Wheat plant response rating (0-100)", "setting": "[22]; [29]", "value": 0}, {"measurement": "Ragweed plant response rating", "setting": "[23]; 16 g ai/ha, 0 to 100 scale", "value": 0}, {"measurement": "Ragweed plant response rating (0-100)", "setting": "[23]; [29]", "value": 0}, {"measurement": "Barnyardgrass plant response rating", "setting": "[24]; 16 g ai/ha, 0 to 100 scale", "value": 0}, {"measurement": "Barnyardgrass plant response rating (0-100)", "setting": "[24]; [29]", "value": 0}, {"measurement": "Kochia plant response rating", "setting": "[25]; 16 g ai/ha, 0 to 100 scale", "value": 0}, {"measurement": "Kochia plant response rating (0-100)", "setting": "[25]; [29]", "value": 0}, {"measurement": "Oat, Wild plant response rating", "setting": "[26]; 16 g ai/ha, 0 to 100 scale", "value": 0}, {"measurement": "Oat, Wild plant response rating (0-100)", "setting": "[26]; [29]", "value": 0}]}
